# Laboratory results reported in ChEMBL document CHEMBL4837195, “Palladium-mediated synthesis and biological evaluation of C-10b substituted Dihydropyrrolo[1,2-b]isoquinolines as antileishmanial agents” (Eur J Med Chem, 2021).
# Legend:
# [1] = tested on: Leishmania amazonensis; experiment: Antileishmanial activity against Leishmania […] MHOM/IN/80/DD8 promastigotes assessed as reduction in parasites for 48 hrs by resazurin dye based assay; assay type: functional, organism-based; details: MHOM/IN/80/DD8, 48 h
# [2] = tested on: Leishmania donovani; experiment: Antileishmanial activity against Leishmania donovani MHOM/Br/79/Maria promastigotes assessed as reduction in parasites for 48 hrs by resazurin dye based assay; assay type: functional, organism-based
# [3] = Selectivity index, ratio of CC50 for mouse J774 cells to IC50 for antileishmanial activity against Leishmania […] MHOM/IN/80/DD8 promastigotes by resazurin dye based assay; assay type: toxicity; details: read-out: Selectivity Index
# [4] = tested on: J774; experiment: Cytotoxicity against mouse J774 cells assessed as reduction in cell viability after 24 hrs by resazurin dye based assay; assay type: functional
# [5] = Selectivity index, ratio of CC50 for mouse J774 cells to IC50 for antileishmanial activity against Leishmania donovani MHOM/Br/79/Maria promastigotes by resazurin dye based assay; assay type: toxicity; details: read-out: Selectivity Index
# [6] = Selectivity index, ratio of CC50 for mouse J774 cells to IC50 for antileishmanial activity against Leishmania donovani MHOM/Br/79/Maria amastigotes by resazurin dye based assay; assay type: toxicity; details: read-out: Selectivity Index
# [7] = Selectivity index, ratio of CC50 for mouse J774 cells to IC50 for antileishmanial activity against Leishmania […] MHOM/IN/80/DD8 amastigotes by resazurin dye based assay; assay type: toxicity; details: read-out: Selectivity Index
# [8] = tested on: Leishmania donovani; experiment: Antileishmanial activity against Leishmania donovani MHOM/Br/79/Maria amastigotes infected in mouse J774 cells assessed as reduction in parasites for 48 hrs by resazurin dye based assay; assay type: functional, organism-based; details: J774, 48 h
# [9] = tested on: Leishmania amazonensis; experiment: Antileishmanial activity against Leishmania […] MHOM/IN/80/DD8 amastigotes infected in mouse J774 cells assessed as reduction in parasites for 48 hrs by resazurin dye based assay; assay type: functional, organism-based; details: MHOM/IN/80/DD8, J774, 48 h
structure (smiles),measurement,setting,value
CC1(Cc2ccc([N+](=O)[O-])cc2)c2ccccc2Cn2cccc21 (stereo not drawn),IC50,[1],157 µM
same,IC50,[2],159 µM
same,selectivity ratio,[3],> 2
same,CC50,[4],≥ 314 µM
same,selectivity ratio,[5],> 1.97
COc1cc2c(cc1OC)C(C)(Cc1cc(C(F)(F)F)cc(C(F)(F)F)c1)c1cccn1C2 (stereo not drawn),IC50,[1],39.6 µM
same,IC50,[2],111 µM
same,selectivity ratio,[3],1.18
same,CC50,[4],46.8 µM
same,selectivity ratio,[5],0.42
COc1cc2c(cc1OC)C(C)(CC#N)c1cccn1C2 (stereo not drawn),IC50,[1],309 µM
same,IC50,[2],226 µM
same,selectivity ratio,[3],> 1.14
same,CC50,[4],≥ 354 µM
same,selectivity ratio,[5],> 1.57
COc1cc2c(cc1OC)C(C)(C/C=C/c1ccccc1)c1cccn1C2 (stereo not drawn),selectivity ratio,[6],> 16.6
same,selectivity ratio,[7],> 4.02
same,IC50,[1],12.2 µM
same,IC50,[2],33.7 µM
same,selectivity ratio,[3],> 23
same,IC50,[8],16.7 µM
same,CC50,[4],≥ 278 µM
same,selectivity ratio,[5],> 8.27
same,IC50,[9],69.3 µM
C=CCC1(C)c2cc(OC)c(OC)cc2Cn2cccc21 (stereo not drawn),selectivity ratio,[6],> 1.38
same,selectivity ratio,[7],> 8.1
same,IC50,[1],23.3 µM
same,IC50,[2],124 µM
same,selectivity ratio,[3],> 15.2
same,IC50,[8],256 µM
same,CC50,[4],≥ 353 µM
same,selectivity ratio,[5],> 2.84
same,IC50,[9],43.5 µM
CC1(Cc2ccc([N+](=O)[O-])cc2)c2cc3c(cc2Cn2cccc21)OCO3 (stereo not drawn),selectivity ratio,[6],> 4.02
same,selectivity ratio,[7],> 3.58
same,IC50,[1],8 µM
same,IC50,[2],30.4 µM
same,selectivity ratio,[3],> 34.5
same,IC50,[8],68.7 µM
same,CC50,[4],≥ 276 µM
same,selectivity ratio,[5],> 9.09
same,IC50,[9],77.1 µM
COc1ccc(CC2(C)c3cc(OC)c(OC)cc3Cn3cccc32)cc1 (stereo not drawn),selectivity ratio,[6],> 6.12
same,selectivity ratio,[7],> 5.34
same,IC50,[1],26.4 µM
same,IC50,[2],47.4 µM
same,selectivity ratio,[3],> 10.4
same,IC50,[8],45 µM
same,CC50,[4],≥ 275 µM
same,selectivity ratio,[5],> 5.8
same,IC50,[9],51.6 µM
COc1cc2c(cc1OCc1ccccc1)Cn1cccc1C2(C)CC#N (stereo not drawn),IC50,[1],24.8 µM
same,IC50,[2],34.4 µM
same,selectivity ratio,[3],7.86
same,CC50,[4],195 µM
same,selectivity ratio,[5],5.68
COc1cc2c(cc1OC)C(C)(Cc1cc3ccc4cccc5ccc(c1)c3c45)c1cccn1C2 (stereo not drawn),IC50,[1],36.7 µM
same,IC50,[2],86 µM
same,selectivity ratio,[3],> 5.95
same,CC50,[4],≥ 219 µM
same,selectivity ratio,[5],> 2.54
CC1(CC#N)c2cc3c(cc2Cn2cccc21)OCO3 (stereo not drawn),IC50,[1],77.4 µM
same,IC50,[2],120 µM
same,selectivity ratio,[3],> 4.85
same,CC50,[4],≥ 376 µM
same,selectivity ratio,[5],> 3.13
COc1ccc2c(c1)Cn1cccc1C2(C)CC#N (stereo not drawn),IC50,[1],123 µM
same,IC50,[2],360 µM
same,selectivity ratio,[3],> 3.21
same,CC50,[4],≥ 396 µM
same,selectivity ratio,[5],> 1.1
COc1cc2c(cc1OC)C(Cc1ccc([N+](=O)[O-])cc1)(C(F)(F)F)c1cccn1C2 (stereo not drawn),selectivity ratio,[6],> 10.4
same,selectivity ratio,[7],> 4.08
same,IC50,[1],3.93 µM
same,IC50,[2],16.4 µM
same,selectivity ratio,[3],> 58.8
same,IC50,[8],22.2 µM
same,CC50,[4],≥ 231 µM
same,selectivity ratio,[5],> 14.1
same,IC50,[9],56.7 µM
CC1(CC#N)c2ccc(OCc3ccccc3)cc2Cn2cccc21 (stereo not drawn),selectivity ratio,[6],4.97
same,IC50,[1],15.8 µM
same,IC50,[2],60.2 µM
same,selectivity ratio,[3],14
same,IC50,[8],44.8 µM
same,CC50,[4],222 µM
same,selectivity ratio,[5],3.69
COc1ccc(CC2(C)c3cc(OC)c(OC)cc3Cn3cccc32)cc1OC (stereo not drawn),selectivity ratio,[6],> 5.49
same,selectivity ratio,[7],> 4.18
same,IC50,[1],3.3 µM
same,IC50,[2],38.3 µM
same,selectivity ratio,[3],> 77
same,IC50,[8],46.3 µM
same,CC50,[4],≥ 254 µM
same,selectivity ratio,[5],> 6.63
same,IC50,[9],60.8 µM
COc1cc2c(cc1OC)C(C)(Cc1ccc([N+](=O)[O-])cc1)c1cccn1C2 (stereo not drawn),selectivity ratio,[6],> 8.92
same,selectivity ratio,[7],> 4.7
same,IC50,[1],18 µM
same,IC50,[2],79.9 µM
same,selectivity ratio,[3],> 14.7
same,IC50,[8],29.6 µM
same,CC50,[4],≥ 264 µM
same,selectivity ratio,[5],> 3.31
same,IC50,[9],56.1 µM
COc1ccc2c(c1OC)Cn1cccc1C2(C)CC#N (stereo not drawn),IC50,[1],171 µM
same,selectivity ratio,[3],> 2.07
same,CC50,[4],≥ 354 µM
COc1ccc(OC)c2c1Cn1cccc1C2(C)CC#N (stereo not drawn),IC50,[1],93.9 µM
same,selectivity ratio,[3],> 3.77
same,CC50,[4],≥ 354 µM
CC1(CC#N)c2ccc(F)cc2Cn2cccc21 (stereo not drawn),IC50,[1],96.5 µM
same,IC50,[2],192 µM
same,selectivity ratio,[3],> 4.31
same,CC50,[4],≥ 416 µM
same,selectivity ratio,[5],> 2.17
COc1cc2c(cc1OC)C(C)(Cc1ccccc1)c1cccn1C2 (stereo not drawn),selectivity ratio,[6],> 5.45
same,selectivity ratio,[7],> 8.93
same,IC50,[1],17.1 µM
same,IC50,[2],30.3 µM
same,selectivity ratio,[3],> 17.5
same,IC50,[8],55 µM
same,CC50,[4],≥ 300 µM
same,selectivity ratio,[5],> 10.1
same,IC50,[9],33.6 µM
CCCCCCCCCCCCCCCCOP(=O)([O-])OCC[N+](C)(C)C [MILTEFOSINE],selectivity ratio,[6],369
same,selectivity ratio,[7],2.85
same,IC50,[1],30.7 µM
same,selectivity ratio,[3],4.43
same,IC50,[8],0.37 µM
same,CC50,[4],136 µM
same,selectivity ratio,[5],906
same,IC50,[9],47.6 µM
